According to patent US20070128217A1 (priority 2003, published 2007):

Tests used:
[1] = system: antibodies in sera from SARS patients (sera 1a, 1b, 2, 6, 37, 62, London, SARS-yellow, SARS-green); format: binding, human; parameters: Binding of serum 6 to linear peptides of protein X1 of SARS-CoV Urbani / Binding of serum 37 to linear peptides of protein X1 of SARS-CoV Urbani / Binding of serum 6 to looped/cyclic peptide (PEPSCAN-ELISA) / Binding of serum 37 to looped/cyclic peptide (PEPSCAN-ELISA) / Binding of serum 37 to looped/cyclic peptides of protein X1 of SARS-CoV Urbani / Binding of serum 6 to linear peptides of protein X2 / Binding of serum 37 to linear peptides of protein X2 / Binding of serum 37 to looped/cyclic peptides of protein X2 of SARS-CoV Urbani / Binding of serum 6 to linear peptides of protein M of SARS-CoV Urbani / Binding of serum 37 to linear peptides of protein M of SARS-CoV Urbani / Binding of serum 6 to looped/cyclic peptides of protein M of SARS-CoV Urbani / Binding of serum 37 to looped/cyclic peptides of protein M of SARS-CoV Urbani / Binding of serum 6 to linear peptides of protein X3 of SARS-CoV Urbani / Binding of serum 37 to linear peptides of protein X3 of SARS-CoV Urbani / Binding of serum 37 to looped/cyclic peptides of protein X3 of SARS-CoV Urbani / Binding of serum 6 to linear peptides of protein X4 of SARS-CoV Urbani / Binding of serum 37 to linear peptides of protein X4 of SARS-CoV Urbani / Binding of serum 37 to looped/cyclic peptides of protein X4 of SARS-CoV Urbani / Binding of serum 6 to linear peptides of protein X5 of SARS-CoV Urbani / Binding of serum 37 to linear peptides of protein X5 of SARS-CoV Urbani / Binding of serum 37 to looped/cyclic peptides of protein X5 of SARS-CoV Urbani / Binding of serum 6 to linear peptides of protein N of SARS-CoV Urbani / Binding of serum 37 to linear peptides of protein N of SARS-CoV Urbani / Binding of serum 6 to linear peptide (PEPSCAN-ELISA) / Binding of serum 1a to looped/cyclic peptides of protein N of SARS-CoV Urbani / Binding of serum 1b to looped/cyclic peptides of protein N of SARS-CoV Urbani / Binding of serum 2 to looped/cyclic peptides of protein N of SARS-CoV Urbani / Binding of serum 6 to looped/cyclic peptides of protein N of SARS-CoV Urbani / Binding of serum 37 to looped/cyclic peptides of protein N of SARS-CoV Urbani / Binding of serum 62 to looped/cyclic peptides of protein N of SARS-CoV Urbani / Binding of serum London to looped/cyclic peptides of protein N of SARS-CoV Urbani / Binding of serum SARS-green to looped/cyclic peptides of protein N of SARS-CoV Urbani: unit not given here
[2] = system: control sera (pooled serum of ten healthy LUMC hospital workers; commercial negative donor pooled serum from the Dutch bloodbank); format: binding, human; parameters: Binding of Control serum LUMC to linear peptides / Binding of Control serum Blood-bank to linear peptides / Binding of Control serum LUMC to looped peptides / Binding of Control Serum Blood-Bank to Looped peptides / Binding of Control serum LUMC to linear peptides of the protein M of SARS-CoV Urbani / Binding of Control serum Blood-bank to linear peptides of the protein M of SARS-CoV Urbani / Binding of Control serum LUMC to looped peptides of the protein M of SARS-CoV Urbani / Binding of Control Serum Blood-Bank to Looped peptides of the protein M of SARS-CoV Urbani: unit not given here
[3] = system: rabbit serum obtained by immunizing a rabbit with the SARS-CoV strain Frankfurt 1; format: binding; parameters: Binding of a rabbit serum to linear peptides / Binding of a rabbit serum to looped peptides / Rabbit serum linear peptides / Rabbit serum looped peptides / Binding of a rabbit serum to linear peptides of protein N of SARS-CoV Urbani (Rabbit serum linear peptides) / Binding of a rabbit serum to looped/cyclic peptides of protein N of SARS-CoV Urbani (Rabbit serum looped peptides): unit not given here
[4] = system: recombinant human anti-SARS-CoV antibody 03-018; format: binding; parameters: Binding of antibody 03-018 to linear peptides of the N protein of SARS-CoV Urbani / Binding of antibody 03-018 to looped/cyclic peptides of the N protein of SARS-CoV Urbani: unit not given here

Row | Sequence | Binding of serum 1a to linear peptides of protein N of SARS-CoV Urbani [1] | Binding of serum 1a to looped/cyclic peptides of protein N of SARS-CoV Urbani [1] | Binding of serum 1b to linear peptides of protein N of SARS-CoV Urbani [1] | Binding of serum 1b to looped/cyclic peptides of protein N of SARS-CoV Urbani [1] | Binding of serum 2 to linear peptides of protein N of SARS-CoV Urbani [1] | Binding of serum 2 to looped/cyclic peptides of protein N of SARS-CoV Urbani [1] | Binding of serum 6 to linear peptides of protein N of SARS-CoV Urbani [1] | Binding of serum 6 to looped/cyclic peptides of protein N of SARS-CoV Urbani [1] | Binding of serum 37 to linear peptides of protein N of SARS-CoV Urbani [1] | Binding of serum 37 to looped/cyclic peptides of protein N of SARS-CoV Urbani [1] | Binding of serum 62 to linear peptides of protein N of SARS-CoV Urbani [1] | Binding of serum 62 to looped/cyclic peptides of protein N of SARS-CoV Urbani [1] | Binding of serum London to linear peptides of protein N of SARS-CoV Urbani [1] | Binding of serum London to looped/cyclic peptides of protein N of SARS-CoV Urbani [1] | Binding of serum SARS-green to linear peptides of protein N of SARS-CoV Urbani [1] | Binding of serum SARS-green to looped/cyclic peptides of protein N of SARS-CoV Urbani [1] | Binding of serum SARS-yellow to linear peptides of protein N of SARS-CoV Urbani [1] | Binding of serum SARS-yellow to looped/cyclic peptides of protein N of SARS-CoV Urbani [1] | Binding of antibody 03-018 to linear peptides of the N protein of SARS-CoV Urbani [4] | Binding of antibody 03-018 to looped/cyclic peptides of the N protein of SARS-CoV Urbani [4] | also measured
1 | IGTRNPNNNAATVLQ | 0.3 | 0.4 | 0.1 | 0.3 | 0.4 | 0.7 | 0.2 | 0.4 | 0.7 | 0.9 | 0.8 | 0.8 | 0.5 | 0.6 | 0.5 | 0.7 | 0.6 | 0.5 | 0.1 | 0.3 | Binding of Control Serum Blood-Bank to Looped peptides [2]: 0.9; Binding of Control serum Blood-bank to linear peptides [2]: 0.8; Binding of Control serum LUMC to linear peptides [2]: 0.9; Binding of Control serum LUMC to looped peptides [2]: 0.8; Binding of a rabbit serum to linear peptides of protein N of SARS-CoV Urbani (Rabbit serum linear peptides) [3]: 0.1; Binding of a rabbit serum to looped/cyclic peptides of protein N of SARS-CoV Urbani (Rabbit serum looped peptides) [3]: 0.4
2 | IGYYRRATRRVRGGD | 0.2 | 0.3 | 0.1 | 0.2 | 0.1 | 0.5 | 0.2 | 0.3 | 0.5 | 0.7 | 0.4 | 0.6 | 0.4 | 0.4 | 0.2 | 0.3 | 0.6 | 0.5 | 0.1 | 0.2 | Binding of Control Serum Blood-Bank to Looped peptides [2]: 0.7; Binding of Control serum Blood-bank to linear peptides [2]: 0.7; Binding of Control serum LUMC to linear peptides [2]: 0.5; Binding of Control serum LUMC to looped peptides [2]: 0.7; Recognition of the peptide by the rabbit serum [3]: recognized
3 | ILLNKHIDAYKTFPP | 0.2 | 0.4 | 0.1 | 0.3 | 0.2 | 0.5 | 0.2 | 0.3 | 0.7 | 0.7 | 0.7 | 0.7 | 0.5 | 0.5 | 0.3 | 0.5 | 0.5 | 0.7 | 0.1 | 0.2 | Control Serum Blood-Bank Looped peptides [2]: 0.6; Control serum Blood-bank linear peptides [2]: 0.7; Control serum LUMC linear peptides [2]: 0.7; Control serum LUMC looped peptides [2]: 0.7; Binding of a rabbit serum to linear peptides of protein N of SARS-CoV Urbani (Rabbit serum linear peptides) [3]: 0.2; Binding of a rabbit serum to looped/cyclic peptides of protein N of SARS-CoV Urbani (Rabbit serum looped peptides) [3]: 0.6
